Key:
[1] = 101.33 kPa, Liquid; for viscosity: Concentric cylinders viscometry; for mass density: Pycnometric method
[2] = molar heat capacity at constant pressure; details: 101.33 kPa, Liquid, Small sample (50 mg) DSC

NCCO [2-aminoethan-1-ol]
Details | mass density, 303.15 K [kg/m3] | mass density, 313.15 K [kg/m3] | mass density, 323.15 K [kg/m3] | molar heat capacity at constant pressure, 303.15 K [J/K/mol] | molar heat capacity at constant pressure, 313.15 K [J/K/mol] | molar heat capacity at constant pressure, 323.15 K [J/K/mol] | viscosity, 303.15 K [mPa·s] | viscosity, 313.15 K [mPa·s] | viscosity, 323.15 K [mPa·s]
[1] | 1008.7 | 1000.4 | 992.5 | – | – | – | 15.36 | 10.26 | 7.19
[2] | – | – | – | 163.7 | 167.98 | 172.25 | – | – | –

Reference: the NIST ThermoML archive (doi:10.1021/je101144k)
